The record followed here is ChEMBL document CHEMBL3600360, “Fluorescent photoaffinity probes for mitotic protein kinase Aurora A” (Bioorg Med Chem Lett, 2015).

Molecules are shown by their SMILES. The source made the active and inactive calls. The calls are words filed in the database; no cut-off is given here.

Assay [1] concerns the target T1, Aurora kinase A (Homo sapiens) (UniProt O14965).
T1 sequence (whole entry): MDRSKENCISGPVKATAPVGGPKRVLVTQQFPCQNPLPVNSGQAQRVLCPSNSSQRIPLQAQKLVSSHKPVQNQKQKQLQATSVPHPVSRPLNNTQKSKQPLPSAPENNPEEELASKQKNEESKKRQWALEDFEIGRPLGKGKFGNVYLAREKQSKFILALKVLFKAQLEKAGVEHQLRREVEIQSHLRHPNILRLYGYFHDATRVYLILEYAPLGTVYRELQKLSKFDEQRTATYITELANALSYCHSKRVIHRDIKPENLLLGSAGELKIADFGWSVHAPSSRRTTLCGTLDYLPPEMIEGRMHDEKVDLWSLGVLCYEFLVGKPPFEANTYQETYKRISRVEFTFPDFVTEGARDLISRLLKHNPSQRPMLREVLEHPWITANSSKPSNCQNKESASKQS
As to the kind of experiment: Binding affinity to purified recombinant full-length Aurora A (unknown origin) assessed as covalent irreversible complex formation at 1.2 uM irradiated for 30 mins with near-UV light by SDS-PAGE and Western blot method. (In general: In western blotting, separated proteins are transferred to a membrane and probed.)

Assay [2] deals with T1, Aurora kinase A (Homo sapiens). As to the kind of experiment: Inhibition of purified recombinant full-length Aurora A (unknown origin) assessed as residual enzyme activity at 2 mM using kemptide analogue substrate and 5 mM ATP in presence of TPX2 (1 to 43 residues).
Assay [3] has the same target. The assay is described as follows: Binding affinity to Aurora A in human HeLa cells assessed as covalent irreversible complex formation at 1 uM irradiated for 15 mins with near-UV light in presence of Aurora A inhibitor MLN8237 by SDS-PAGE and Western blot method. In kind it is cell-based.
Assay [4] has the same target. As to the kind of experiment: Binding affinity to Aurora A in human HeLa cells assessed as covalent irreversible complex formation at 1 uM irradiated for 15 mins with near-UV light by SDS-PAGE and Western blot method. In kind it is cell-based.
Assay [5] has the same target. The assay is described as follows: Binding affinity to purified recombinant full-length Aurora A (unknown origin) assessed as covalent irreversible complex formation at 1.2 uM irradiated for 15 mins with near-UV light in presence of TPX2 by SDS-PAGE and Western blot method.
For assay [6] the target is unchanged. As to the kind of experiment: Binding affinity to purified recombinant full-length Aurora A (unknown origin) assessed as covalent irreversible complex formation at 2.4 uM irradiated for 15 mins with near-UV light by SDS-PAGE and Western blot method.
The target of a further assay is T2, Aurora kinase A (Homo sapiens, UniProt O14965).
T2 sequence (O14965 whole entry): T1 sequence (whole entry)
The assay is described as follows: Binding affinity to purified recombinant full-length Aurora A (unknown origin) by fluorescence polarisation/anisotropy based equilibrium binding assay.

Assay [7] concerns the target T1, Aurora kinase A (Homo sapiens). As to the kind of experiment: Binding affinity to 1 uM and >100 uM VX689-prre-treated purified recombinant full-length Aurora A (unknown origin) assessed as covalent irreversible complex formation at 1 uM irradiated for 15 mins with near-UV light by SDS-PAGE and Western blot method.
Assay [8] has the same target. The assay is described as follows: Binding affinity to purified recombinant full-length Aurora A (unknown origin) assessed as covalent irreversible complex formation at 2.4 uM irradiated for 15 mins with near-UV light in presence of TPX2 by SDS-PAGE and Western blot method.
Assay [9] has the same target. As to the kind of experiment: Binding affinity to purified recombinant full-length Aurora A (unknown origin) assessed as covalent irreversible complex formation at 4.8 uM irradiated for 15 mins with near-UV light using 200 nM Aurora A by SDS-PAGE and Western blot method.

For the compound `CN(C)c1ccc2c(-c3ccc(C(=O)NCCCC[C@H](NC(=O)[C@H](Cc4ccc(C(=O)c5ccccc5)cc4)NC(=O)[C@H](Cc4ccc(C(=O)c5ccccc5)cc4)NC(=O)CCCNC(=O)[C@]4(Cc5cccc(Nc6nccs6)n5)CC[C@@H](Oc5cccc(Cl)c5F)CC4)C(N)=O)cc3C(=O)O)c3ccc(=[N+](C)C)cc-3oc2c1`, the Activity turned out to be 9% in assay [1] and 100% in [2]. In addition, the outcome in [3], in [4] and in assay [5] was Active.

In the case of `CCN1/C(=C/C=C/C2=[N+](CC)c3ccc(S(=O)(=O)O)cc3C2(C)C)C(C)(CCCC(=O)NCCCC[C@@H](NC(=O)[C@H](CCCNC(=N)N)NC(=O)[C@H](CCCNC(=N)N)NC(=O)[C@H](CCCNC(=N)N)NC(=O)[C@H](CCCNC(=N)N)NC(=O)[C@H](CCCNC(=N)N)NC(=O)[C@H](CCCNC(=N)N)NC(=O)[C@H](Cc2ccc(C(=O)c3ccccc3)cc2)NC(=O)[C@H](Cc2ccc(C(=O)c3ccccc3)cc2)NC(=O)CCCNC(=O)[C@]2(Cc3cccc(Nc4nccs4)n3)CC[C@@H](Oc3cccc(Cl)c3F)CC2)C(N)=O)c2cc(S(=O)(=O)O)ccc21` (some centres not stated), the Activity in assay [6] was determined as 8.5%; in assay [2] it was 100%.

For the compound `O=C(O)[C@]1(Cc2cccc(Nc3nccs3)n2)CC[C@@H](Oc2cccc(Cl)c2F)CC1`, in [2], the Activity turned out to be 67%.

For the compound `CCN1/C(=C/C=C/C2=[N+](CC)c3ccc(S(=O)(=O)O)cc3C2(C)C)C(C)(CCCC(=O)NCCCC[C@@H](NC(=O)[C@@H](CCCNC(=N)N)NC(=O)[C@@H](CCCNC(=N)N)NC(=O)[C@@H](CCCNC(=N)N)NC(=O)[C@@H](CCCNC(=N)N)NC(=O)[C@@H](CCCNC(=N)N)NC(=O)[C@@H](CCCNC(=N)N)NC(=O)[C@H](Cc2ccc(N=[N+]=[N-])cc2)NC(=O)[C@H](Cc2ccc(N=[N+]=[N-])cc2)NC(=O)CCNC(=O)[C@]2(Cc3cccc(Nc4nccs4)n3)CC[C@@H](Oc3cccc(Cl)c3F)CC2)C(N)=O)c2cc(S(=O)(=O)O)ccc21` (some centres not stated), the Kd (commonly the free concentration of one partner at which half of the binding sites on the other are occupied at equilibrium, for simple one-to-one binding) on Aurora kinase A came to 5.7 nM. For the same compound, the Activity in assay [6] was 18%; in [2], 71%. Further, the outcome in [7] and in assay [3] was inactive. In addition, in [4], the outcome was Active.

As for `CN(C)c1ccc2c(-c3ccc(C(=O)NCCCOCCOCCOCCCNC(=O)[C@@H](Cc4ccc(N=[N+]=[N-])cc4)NC(=O)CCNC(=O)[C@]4(Cc5cccc(Nc6nccs6)n5)CC[C@@H](Oc5cccc(Cl)c5F)CC4)cc3C(=O)O)c3ccc(=[N+](C)C)cc-3oc2c1`, the Kd on Aurora kinase A came to 2.2 nM. For the same compound, the Activity in assay [1] amounted to 20%; in assay [2], 73%. In [7], the result was inactive.

Regarding `CN(C)c1ccc2c(-c3ccc(C(=O)NCCCC[C@H](NC(=O)[C@H](Cc4ccc(N=[N+]=[N-])cc4)NC(=O)[C@H](Cc4ccc(N=[N+]=[N-])cc4)NC(=O)CCCNC(=O)[C@]4(Cc5cccc(Nc6nccs6)n5)CC[C@@H](Oc5cccc(Cl)c5F)CC4)C(N)=O)cc3C(=O)O)c3ccc(=[N+](C)C)cc-3oc2c1`, at Aurora kinase A, the dissociation constant Kd was 1.9 nM. The result in assay [8], in [3] and in [4] was Active. For the same compound, the result in assay [9] and in assay [7] was inactive. The Activity in assay [6] was 40%; in [2], 100%.

In the case of `CCN1/C(=C/C=C/C2=[N+](CC)c3ccc(S(=O)(=O)O)cc3C2(C)C)C(C)(CCCC(=O)NCCCC[C@@H](NC(=O)[C@@H](CCCNC(=N)N)NC(=O)[C@@H](CCCNC(=N)N)NC(=O)[C@@H](CCCNC(=N)N)NC(=O)[C@@H](CCCNC(=N)N)NC(=O)[C@@H](CCCNC(=N)N)NC(=O)[C@@H](CCCNC(=N)N)NC(=O)[C@H](Cc2ccc(C(=O)c3ccccc3)cc2)NC(=O)[C@H](Cc2ccc(C(=O)c3ccccc3)cc2)NC(=O)CCCNC(=O)[C@]2(Cc3cccc(Nc4nccs4)n3)CC[C@@H](Oc3cccc(Cl)c3F)CC2)C(N)=O)c2cc(S(=O)(=O)O)ccc21` (some centres not stated), the Kd on Aurora kinase A worked out at 9.1 nM. In addition, the figures for the Activity in assay [6] and in assay [2] were 8.1% and 100%, respectively.

As for `CCN1/C(=C/C=C/C2=[N+](CC)c3ccc(S(=O)(=O)O)cc3C2(C)C)C(C)(CCCC(=O)NCCCC[C@@H](NC(=O)[C@H](CCCNC(=N)N)NC(=O)[C@H](CCCNC(=N)N)NC(=O)[C@H](CCCNC(=N)N)NC(=O)[C@H](CCCNC(=N)N)NC(=O)[C@H](CCCNC(=N)N)NC(=O)[C@H](CCCNC(=N)N)NC(=O)[C@@H](Cc2ccc(N=[N+]=[N-])cc2)NC(=O)[C@@H](Cc2ccc(N=[N+]=[N-])cc2)NC(=O)CCNC(=O)[C@]2(Cc3cccc(Nc4nccs4)n3)CC[C@@H](Oc3cccc(Cl)c3F)CC2)C(N)=O)c2cc(S(=O)(=O)O)ccc21` (some centres not stated), the Kd on Aurora kinase A was 6.1 nM. Also, the Activity in assay [6] is 15%; in [2], 74%. The outcome in [7] and in assay [3] was inactive. The result in assay [4] was Active.

Consider `CCN1/C(=C/C=C/C2=[N+](CC)c3ccc(S(=O)(=O)O)cc3C2(C)C)C(C)(CCCC(=O)NCCCC[C@@H](NC(=O)[C@@H](CCCNC(=N)N)NC(=O)[C@@H](CCCNC(=N)N)NC(=O)[C@@H](CCCNC(=N)N)NC(=O)[C@@H](CCCNC(=N)N)NC(=O)[C@@H](CCCNC(=N)N)NC(=O)[C@@H](CCCNC(=N)N)NC(=O)[C@@H](Cc2ccc(C(=O)c3ccccc3)cc2)NC(=O)[C@@H](Cc2ccc(C(=O)c3ccccc3)cc2)NC(=O)CCCNC(=O)[C@]2(Cc3cccc(Nc4nccs4)n3)CC[C@@H](Oc3cccc(Cl)c3F)CC2)C(N)=O)c2cc(S(=O)(=O)O)ccc21` (some centres not stated), for which the Kd at Aurora kinase A was found to be 6.5 nM. The Activity is 6.9% in assay [6] and 110% in [2].

As to `CN(C)c1ccc2c(-c3ccc(C(=O)NCCCC[C@H](NC(=O)[C@H](Cc4ccccc4)NC(=O)[C@H](Cc4ccccc4)NC(=O)CCCNC(=O)[C@]4(Cc5cccc(Nc6nccs6)n5)CC[C@@H](Oc5cccc(Cl)c5F)CC4)C(N)=O)cc3C(=O)O)c3ccc(=[N+](C)C)cc-3oc2c1`, at Aurora kinase A, the Kd is 0.44 nM. Moreover, the Activity in [1] was determined as 1.5%; in assay [2], 110%. In addition, in [5], the outcome was Active.

`N=C(N)NCCC[C@@H](NC(=O)[C@@H](CCCNC(=N)N)NC(=O)[C@@H](CCCNC(=N)N)NC(=O)[C@@H](CCCNC(=N)N)NC(=O)[C@@H](CCCNC(=N)N)NC(=O)[C@@H](CCCNC(=N)N)NC(=O)CCCCCNC(=O)[C@]1(Cc2cccc(Nc3nccs3)n2)CC[C@@H](Oc2cccc(Cl)c2F)CC1)C(N)=O`: in [2], the Activity was 10%.

On to `CCN1/C(=C/C=C/C2=[N+](CC)c3ccc(S(=O)(=O)O)cc3C2(C)C)C(C)(CCCC(=O)NCCCC[C@@H](NC(=O)[C@@H](CCCNC(=N)N)NC(=O)[C@@H](CCCNC(=N)N)NC(=O)[C@@H](CCCNC(=N)N)NC(=O)[C@@H](CCCNC(=N)N)NC(=O)[C@@H](CCCNC(=N)N)NC(=O)[C@@H](CCCNC(=N)N)NC(=O)[C@@H](Cc2ccc(N=[N+]=[N-])cc2)NC(=O)[C@@H](Cc2ccc(N=[N+]=[N-])cc2)NC(=O)CCNC(=O)[C@]2(Cc3cccc(Nc4nccs4)n3)CC[C@@H](Oc3cccc(Cl)c3F)CC2)C(N)=O)c2cc(S(=O)(=O)O)ccc21` (stereo in doubt), for which, on Aurora kinase A, the Kd is 2.5 nM. For the same compound, the Activity was found to be 11% in assay [6] and 96% in assay [2]. For the same compound, the result in [7] was inactive.
